# Data reported in patent publication EP0361645B1, “Organic hydrazine derivatives for pharmaceutical use” (ROHM AND HAAS COMPANY, priority 1988, dated 1990).
# Tests used:
# intact L5D0 hornworms = assay: Premature head capsule apolysis in intact L5D0 hornworms, injected; format: in vivo, M. sexta; conditions: for ED50: Manduca sexta, L5D0 larvae, read-out: 50% effective dose
# Experimental: (§1) L4D1 means fourth instar, first day after molting. L4 animals 36 hours after ecdysis were ligated, decapitated and next day injected with varying doses of compound in 1 - 2 ul DMSO. They were scored as follows: 0 = normal L4 abdomens with no L5 crochets or spiracle apolysis; 1 = exposed dorsal vessel (response to moderate levels of molting hormone in the presence of low JH levels); 2 = L5 crochets formed but no spiracle apolysis; 3 = L5 crochets formed and mild spiracle apolysis; 4 = strong molting response, both L5 crochets and spiracle cuticle synthesized. These methods are an adaptation of the method of J. W. Truman, L. M. Riddiford, L. Safranek, 39 Dev. Biol 247 (1974). Injection and scoring of L5D3 abdomens (weighing 6.5 - 7.5 g) are also adaptations of previous methods in H. F. Nijhout, 22 J. Insect Physiol. 453 (1976). Mature feeding stage fifth instar animals weighing 8.5 - 9.5 g were ligated and decapitated, and immediately injected with Example No. 3 in 2 - 5 ul DMSO. Animals were held over moistened filter paper at 25 ° C and were scored after three days. Scoring was as follows: 0 = normal undeveloped blue-green L5D3 abdomen; 1 = light dorsal vessel exposure; 2 = dorsal vessel well-exposed with mild cuticular blanching, abdominal contraction; 3 = complete prepupal cuticle formation with strong abdominal contraction and strong cuticular blanching. For both L4 and L5 abdomens, 50% effective doses were determined by plotting the mean score for all individuals vs. dose, then determining the dose which gives a score of 2.0 and 1.5 respectively. Intact L5D0 hornworms were either allowed to feed on treated commercial black cutworm diet or injected into a proleg and scored after 48 hours. The 50% effective dose was calculated by plotting percentage of the population bearing a prematurely apolysed head capsule vs. dose. For all experiments in this table at least 5 different doses with 10 animals per dose were used.
# The dosage differences between the two compounds was even more dramatic in bioassays on intact (unligated) L5D0 hornworms. […]
# helminths = conditions: stated as known; cited from earlier work
# M. sexta = assay: Hemolymph ecdysteroid titers (radioimmunoassay) and weight gain of fourth instar M. sexta fed compound in artificial diet; format: in vivo, Manduca sexta
# Experimental: The invention will now be further described by way of exemplification and by reference to the drawings in which; • Figure 1. Both 20-hydroxyecdysone and Example No. 3 induce process elaboration (A) and inhibition of cell proliferation (B) in Kr cells in a dose-dependent manner. Initial cell density was 2 X 10^6 cells/ml; after incubation of 1 ml aliquots of the cells with the compound for 48 hours the cells were triturated gently and the percentage of cells responding (with processes longer than approximately 17 um, see Cherbas et al. 189 Wilhelm Roux's Arch. 1 (1980)) and total cell density was determined by hemocytom- eter counting, relative to ethanol (1 ul)-treated controls. Determinations were in triplicate for each dose. […] Induction of acetylcholinesterase by varying concentrations of 20-hydroxyecdysone and Example No. 3. Kr cells at an initial density of 3 X 10^6 cells/ml (10 ml per sample) were incubated with the agonist for three days. After harvesting, by centrifugation at 3000 X g, the cell pellets were washed with Robb's Drosophila saline (18, 2 X 5 ml) at 4 ° C, then lysed by sonication in 1 ml of phosphate buffer (pH 7.4, I = 0.1 M) containing 0.5 M NaCI, 0.25 M EDTA and 0.5% TRITON? X-100. See Cherbas, 197 Science 275 (1977). Triton is a registered trademark of Rohm and Haas Company for a alkylaryl polyoxyethylene glycol surfactant. After centrifugation at 16,000 X g, the supernatants were assayed for acetylcholinesterase activity by an adaptation of the method of Ellman et al., 7 Biochem. Pharmacol. 88 (1961), by subtracting out any 412 nm absorbance observed in incubations in the presence of 2 X 10-5 eserine sulfate. Thus reaction mixtures contained 50 ul of enzyme extract, 20 ul eserine (blank tubes only) and 1.0 ml of 0.5 mM acetylthiocholine, 0.3 mM dithiobisnitrobenzoic acid in phosphate buffer (pH 7.4, I = 0.1 M). Incubations were at 25 ° C for two hours; reactions in active tubes were terminated by addition of eserine. Absorbance at 412 nm was then measured. Protein concentration in extracts was measured by the Biorad method. […] Scatchard plot of ^3H-ponasterone A binding to Kr cell cytosolic receptor extracts in the presence of differing concentrations of Example No. 3. Cytosolic extract preparation and ecdysteroid receptor assays were essentially as described in Sage, 111 Meth. in Enzymol. 458 (1985). Example No. 3 was added in 1 ul DMSO to 50 ul of radioligand in 10 mM Tris buffer (pH 7.2) and 50 ul of undiluted cytosol extract. After incubation overnight at 0.5 ° C, bound label was separated from free by addition of 300 ul 1% HCI-washed charcoal (Sigma) and 0.1% Dextran T70 (Pharmacia) in Tris buffer, centrifugation (13,000 X g, 3 min, 4 ° C) and liquid scintillation counting of a 300 ul aliquot of the supernatant in 15 ml Hydrofluor (National Diagnostics). Points are means of duplicate determinations. […] Relative ability of 20 hydroxyecdysone and Example No. 3 to displace ^3H-ponasterone A from cytosolic receptor extracts. Conditions were as in Figure 3 except that only 0.5 nM ponasterone A was used. • Points are means of duplicate determinations. For 20-hydroxyecdysone EC50 = 0.1 uM while for Example No. 3 EC50 = 3.0 uM. Control binding = 10 femtomoles ^3H-ponasterone A bound per mg cytosol protein. • Figure 4. […] Ecdysteroid titers were measured by a radioimmunoassay adapted from Warren et al., 40 Experientia 393 (1984) with Protein A-Staph. aureus suspension (Sigma) used as the reagent to separate bound from free ligand. […]
# [1] = tested on: ligated M. sexta abdomens (L4D1); assay: Onset of molting in ligated L4D1 M. sexta abdomens (injection); format: in vivo; conditions: injected into L4D1 abdomens
# Experimental: as §1, with “Mature feeding stage fifth instar animals weighing 8.5 - 9.5 g were ligated and decapitated, and immediately injected with Example No. 3 in 2 - 5 ul DMSO.” left out, “Scoring was as follows: 0 = normal undeveloped blue-green L5D3 abdomen; 1 = light dorsal vessel exposure; 2 = dorsal vessel well-exposed with mild cuticular blanching, abdominal contraction; 3 = complete prepupal cuticle formation with strong abdominal contraction and strong cuticular blanching.” left out, “For all experiments in this table at least 5 different doses with 10 animals per dose were used.” left out
# [2] = tested on: ligated M. sexta abdomens (L5D3); assay: Onset of pupal development in ligated L5D3 M. sexta abdomens (injection); format: in vivo; conditions: injected into L5D3 abdomens, events related to pupal formation
# Experimental: as §1, with “Mature feeding stage fifth instar animals weighing 8.5 - 9.5 g were ligated and decapitated, and immediately injected with Example No. 3 in 2 - 5 ul DMSO.” left out, “Scoring was as follows: 0 = normal undeveloped blue-green L5D3 abdomen; 1 = light dorsal vessel exposure; 2 = dorsal vessel well-exposed with mild cuticular blanching, abdominal contraction; 3 = complete prepupal cuticle formation with strong abdominal contraction and strong cuticular blanching.” left out, “For all experiments in this table at least 5 different doses with 10 animals per dose were used.” left out
# [3] = L4 M. sexta, 10 ppm in artificial diet
SMILES,ED50 (intact L5D0 hornworms),control of helminths (helminths),"ecdysone titers relative to control levels (M. sexta; L4D0 animals, within four hours after the initiation of feeding)",outcome of the molt (M. sexta; L4 M. sexta treated larvae),feeding and weight gain (M. sexta; [3]),immunoreactive ecdysone titers (M. sexta; [3]),time to head capsule slippage (M. sexta; [3]),fold more potent than 20-hydroxyecdysone [1],times as potent as 20-hydroxyecdysone [2],fold as effective as 20-hydroxyecdysone (intact L5D0 hornworms; intact L5D0 hornworms)
"CC(C)(O)CC[C@@H](O)[C@](C)(O)[C@H]1CC[C@@]2(O)C3=CC(=O)[C@@H]4C[C@@H](O)[C@@H](O)C[C@]4(C)[C@H]3CC[C@]12C [20-hydroxyecdysone, reference compound]",181 mg/kg,controls helminths,,,,,,,,
"CC(C)(C)N(NC(=O)c1ccccc1)C(=O)c1ccccc1 [Example No. 3, N'-t-butyl-N,N'-dibenzoylhydrazine]",3.4 mg/kg,,significantly depressed,eventually died without completing the molt,further feeding and weight gain ceases,without any elevation of ecdysone titers,24 h,30 fold,30 times,67 fold
